Where a name gives a salt, the structure may show the parent alone.
Key:
Format in all cases: biochemical
[1] = target: Recombinant human inducible NOS (iNOS) (Homo sapiens (Human), UniProt P35228); test: Human iNOS enzyme assay (Protocol 1 or Protocol 2, radiometric)
Description: The human iNOS assay was carried by either one of the two protocols as described herein:
Recombinant human inducible NOS (iNOS) was produced in Baculovirus-infected Sf9 cells (ALEXIS). In a radiometric method, NO synthase activity was determined by measuring the conversion of [^3H]L-arginine to [^3H]L-citrulline. To measure iNOS, 10 μL of enzyme was added to 100 μL of 100 mM HEPES, pH=7.4, containing 1 mM CaCl2, 1 mM EDTA, 1 mM dithiothreitol, 1 μM FMN, 1 μM FAD, 10 μM tetrahydrobiopterin, 120 μM NADPH, and 100 nM CaM.
To measure enzyme inhibition, a 15 μL solution of a test substance was added to the enzyme assay solution, followed by a pre-incubation time of 15 min at RT. The reaction was initiated by addition of 20 μL L-arginine containing 0.25 μCi of [^3H] arginine/mL and 24 μM L-arginine. The total volume of the reaction mixture was 150 μL in every well. The reactions were carried out at 37° C. for 45 minutes, The reaction was stopped by adding 20 μL of ice-cold buffer containing 100 mM HEPES, 3 mM EGTA, 3 mM EDTA, pH=5.5. [^3H]L-citrulline was separated by DOWEX (ion-exchange resin DOWEX 50 W×8-400, SIGMA) and the DOWEX was removed by spinning at 12,000 g for 10 min in the centrifuge. An aliquot (70 μL) of the supernatant was added to 100 μL of scintillation fluid, and the samples were counted in a liquid scintillation counter (1450 Microbeta Jet, Wallac). Specific NOS activity was reported as the difference between the activity recovered from the test solution and that observed in a control sample containing 240 mM of the inhibitor L-NMMA. All assays were performed at least in duplicate. Standard deviations are 10% or less.
Primary stock solutions of each test compound were prepared in distilled water on the day of study to obtain a final concentration of 6 mM. For the determination of IC50 values, 11 test compound concentrations were prepared as 3-fold serial dilutions. Test compounds were tested in the iNOS assay at a concentration of 1000 μM to 0.0169 μM. The vehicle of the test compound or inhibitor, distilled water, was used as blank control. For non-specific activity, 100 μM L-NMMA was run in parallel as a control.
All incubations were performed in duplicate
The reaction mixture was prepared on ice by the addition of the following components to the appropriate well of a 1.0 mL 96-well polypropylene plate:
10 μL of test compound, reference inhibitor, or control (vehicle or L-NMMA) solution;
25 μL of Reaction Buffer (50 mM Tris-HCl, 6 μM BH4, 2 μM FMN, 2 μM FAD);
5 μL of 10 mM NADPH solution;
5 μL of 1 μM Calmodulin; and
The reaction mixture was pre-incubated at room temperature for 15 minutes. Following this pre-incubation, the reaction was initiated by the addition of 5 μL of the substrate L-arginine (1 μCi of [^3H]-L-Arginine+30 μM of unlabeled L-Arginine) to the reaction mixture. The total reaction volume was 60 μL. The assay plate containing the reaction mixtures was sealed and incubated at 37° C. for 30 minutes. At the end of this incubation period, 400 μL of ice-cold Stop Buffer (the EDTA in the Stop Buffer chelates all of the available calcium) was added to each well to stop the reaction. 100 μL of equilibrated resin pH 5.5 was added to each of the assay wells. The reaction samples were vortexed and transferred to spin cups, after-which they were centrifuged at 13,000 rpm for 30 sec. The spin cups were removed from the holder and […] (containing the unbound L-citrulline) were added to the appropriate wells of a 96-well liquid scintillation plate. 175 μL of scintillation fluid were also added to each well. The plate was sealed, and radioactivity was quantitated using a Microbeta liquid scintillation counter.
Data were analyzed using a Sigmoidal dose-response (variable slope) curve to determine the IC50 value of the test compound. Y=Bottom+(Top−Bottom)/(1+10^((Log IC50−X)*Hill Slope))

[2] = target: Nitric oxide synthase (neuronal, human recombinant) nNOS (Homo sapiens (Human), UniProt P29475); test: Human nNOS enzyme assay ([3H]-L-arginine to L-citrulline conversion); conditions: for Selectivity eNOS/nNOS: ratio of human eNOS IC50 to human nNOS IC50; for IC50: recombinant human nNOS
Description: (§1) nNOS (Human), eNOS (Human) and iNOS (Human) Enzyme Assay
(§2) Primary stock solutions of test compounds at a concentration of 6 mM were prepared from the 2 to 5 mg powder. The primary stock solutions of each test compound were prepared freshly in distilled water on the day of study to obtain a final concentration of 6 mM. For determination of IC50 values, 12 test compound concentrations were prepared as 3-fold serial dilutions. Concentration range of test compound utilized for nNOS were 0.001 to 300 μM and for eNOS were 0.003 to 1000 μM. The vehicle of the test compound or inhibitor was used as blank control. For non-specific activity, 100 μM L-NMMA was used. Runs using the IC50 concentration of L-NAME were done in parallel as controls.
(§3) All incubations are performed in duplicate
(§4) The reaction mixture was prepared on ice by adding the following components with a micropipette to a polypropylene microcentrifuge tube: • 10 μL of test compound, inhibitor or control (vehicle or L-NMMA) solution; • 25 μL of Reaction Buffer {25 mM Tris-HCl, 0.6 μM BH4, 0.2 μM FMN, 0.2 μM FAD}; • 5 μL of 10 mM NADPH solution {1 mM} (freshly prepared in 10 mM Tris-HCl (pH 7.4); • 5 μL of 6 mM CaCl2 {600 W}; • 5 μL of 1 mM Calmodulin {100 W}; and • 5 μL of 0.02 μg/μL nNOS or 0.12 μg/μL eNOS.
(§5) The above reaction mixture was pre-incubated at room temperature for 15 mins.
(§6) The reaction was started by the addition of the substrate (in 5 μL containing 1 μCi of [^3H]-L-Arginine+2.5 μM of unlabeled L-Arginine) to the reaction mixture. Total reaction volume is 60 μL.
(§7) The reaction was mixed using a vortex mixer and incubate the above reaction mixture at 37° C. in an incubator for 30 minutes.
(§8) To stop the reaction, 400 μL of ice-cold Stop Buffer was added at the end of the incubation period.
(§9) The reaction was then mixed using a vortex mixer, and the reaction samples were transferred to spin cups, which were centrifuged using a microcentrifuge, at 13,000 rpm for 30 sec. at room temperature.
(§10) The spin cups were removed from the holder, 450 μL of eluate (containing the unbound L-citrulline) were transferred to scintillation vials. 3 mL of scintillation fluid were added and the radioactivity was quantified in a liquid scintillation counter.
(§11) Data was analyzed using a Sigmoidal dose-response (variable slope) curve to determine the IC50 value of the test compound. Y=Bottom+(Top−Bottom)/(1+10^((Log IC50−X)*Hill Slope))

[3] = target: Nitric oxide synthase (endothelial, human recombinant) eNOS (Homo sapiens (Human), UniProt P29474); test: Human eNOS enzyme assay ([3H]-L-arginine to L-citrulline conversion)
Description: as §1, §2, §3, §4, §5, §6, §7, §8, §9, §10, §11

SMILES	IC50 [1] [µM]	Selectivity eNOS/nNOS [2]	IC50 [2] [µM]	IC50 [3] [µM]
CCN(CC)CCN1CCSc2cc(NC(=N)c3cccs3)ccc21 [Compound 15, N-(4-(2-(Diethylamino)ethyl)-3,4-dihydro-2H-benzo[b][1,4]thiazin-7-yl)thiophene-2-carboximidamide]	40.7	134	0.15	20.1
CN(CCN1CCSc2cc(NC(=N)c3cccs3)ccc21)CC(=O)O [Compound 17, 2-(methyl(2-(7-(thiophene-2-carboximidamido)-2H-benzo[b][1,4]thiazin-4(3H)-yl)ethyl)amino)acetic acid dihydrochloride]	241	9.3	1.16	10.9
N=C(Nc1ccc2c(c1)SCCN2CCN1CCC[C@H]1C(=O)O)c1cccs1 [Compound 18, (S)-1-(2-(7-(Thiophene-2-carboximidamido)-2H-benzo[b][1,4]thiazin-4(3H)-yl)ethyl)pyrrolidine-2-carboxylic acid dihydrochloride]	341	19	0.66	12.6
CN(C)CCN1CCSc2cc(NC(=N)c3ccco3)ccc21 [Compound 19, N-(4-(2-(dimethylamino)ethyl)-3,4-dihydro-2H-benzo[b][1,4]thiazin-7-yl)furan-2-carboximidamide]	136	676	0.14	94.7
CNCCN1CCSc2cc(NC(=N)c3ccco3)ccc21 [Compound 20, N-(4-(2-(methylamino)ethyl)-3,4-dihydro-2H-benzo[b][1,4]thiazin-7-yl)furan-2-carboximidamide]	268	290	0.16	46.4
N=C(Nc1ccc2c(c1)SCCN2CCCN1CCCC1)c1cccs1 [Compound 21, N-(4-(3-(pyrrolidin-1-yl)propyl)-3,4-dihydro-2H-benzo[b][1,4]thiazin-7-yl)thiophene-2-carboximidamide]	49.6	71.4	0.14	10
CNCCCN1CCSc2cc(NC(=N)c3cccs3)ccc21 [Compound 23, N-(4-(3-(methylamino)propyl)-3,4-dihydro-2H-benzo[b][1,4]thiazin-7-yl)thiophene-2-carboximidamide]	172	664	0.028	18.6
CCNCCN1CCSc2ccc(NC(=N)c3cccs3)cc21 [Compound 24, N-(4-(2-(ethylamino)ethyl)-3,4-dihydro-2H-benzo[b][1,4]thiazin-6-yl)thiophene-2-carboximidamide]	82.3	89	0.05	4.45
CN(C)CCN1CCSc2ccc(NC(=N)c3cccs3)cc21 [Compound 27, N-(4-(2-(dimethylamino)ethyl)-3,4-dihydro-2H-benzo[b][1,4]thiazin-6-yl)thiophene-2-carboximidamide]	66.5	268.4	0.13	34.9
N=C(Nc1ccc2c(c1)N(C1CCNCC1)CCS2)c1cccs1 [Compound 29, N-(4-(piperidin-4-yl)-3,4-dihydro-2H-benzo[b][1,4]thiazin-6-yl)thiophene-2-carboximidamide]	76.8	396	0.11	43.6

Results, then the molecule that gave them:

IC50 [1] [µM]	Selectivity eNOS/nNOS [2]	IC50 [2] [µM]	IC50 [3] [µM]	SMILES
58.7	205	0.034	7	N=C(Nc1ccc2c(c1)SCCN2CCNCCO)c1cccs1 [Compound 16, N-(4-(2-(2-hydroxyethylamino)ethyl)-3,4-dihydro-2H-benzo[b][1,4]thiazin-7-yl)thiophene-2-carboximidamide dihydrochloride]
115	864	0.014	12.1	CN(C)CCCN1CCSc2cc(NC(=N)c3cccs3)ccc21 [Compound 22, N-(4-(3-(Dimethylamino)propyl)-3,4-dihydro-2H-benzo[b][1,4]thiazin-7-yl)thiophene-2-carboximidamide]
43.6	90.5	0.2	18.1	N=C(Nc1ccc2c(c1)N(CCN1CCCC1)CCS2)c1cccs1 [Compound 25, N-(4-(2-(pyrrolidin-1-yl)ethyl)-3,4-dihydro-2H-benzo[b][1,4]thiazin-6-yl)thiophene-2-carboximidamide]
60.1	56.5	0.15	8.48	N=C(Nc1ccc2c(c1)N(CCNCCO)CCS2)c1cccs1 [Compound 26, N-(4-(2-(2-hydroxyethylamino)ethyl)-3,4-dihydro-2H-benzo[b][1,4]thiazin-6-yl)thiophene-2-carboximidamide]
348	107.2	0.08	8.58	CNCCN1CCSc2ccc(NC(=N)c3cccs3)cc21 [Compound 28, N-(4-(2-(methylamino)ethyl)-3,4-dihydro-2H-benzo[b][1,4]thiazin-6-yl)thiophene-2-carboximidamide]

From patent publication US8618286B2, “Benzoxazines, benzothiazines, and related compounds having NOS inhibitory activity” (NeurAxon, Inc., priority 2008, dated 2013)
